Molecular target: Bile salt export pump (Homo sapiens, UniProt O95342)
Experiment: ChEBML_1661982
Procedure: Inhibition of human BSEP expressed in fall armyworm sf9 cell plasma membrane vesicles assessed as reduction in vesicle-associated [3H]-taurocholate transport preincubated for 10 mins prior to ATP addition measured after 15 mins in presence of [3H]-taurocholate by topcount based membrane vesicle transport assay

IC50: > 135 µM
Structure (SMILES): O=C1OC2(c3ccc(O)cc3Oc3cc(O)ccc32)c2ccccc21
